The experiment deals with T1, PK40 (ERK2) (Homo sapiens, UniProt P28482).
T1 construct: made in house; host or cells: E. coli BL21 pLysS (printed 'B121pLysS'), pET-14b vector
As to the kind of experiment: PK40(ERK2) kinase inhibition assay. It is filed as biochemical. Conditions: 0.25 mM ATP, myelin basic protein substrate. The protocol:
Preparation of ERK2: Recombinant human ERK2 with a N-terminal histidine (his) tag was prepared as follows: An ERK2 cDNA clone was amplified from a human frontal cortex library by PCR with primers matching the published human sequence [Gonzales F. A. et al, FEBS Lett. 304, 170-178 (1992)]. The histidine tag was introduced by site-directed mutagenesis. The cDNA was cloned into a pET-14b (Novagen) vector and transfected into the E. coli lysogen strain B121pLysS. Single colony transformants were grown in LB medium containing […] chloramphenicol to maintain pLysS and […] to an O.D.600 OF 0.6. The culture was then induced with 0.4 mM IPTG for 4 hours. The expressed ERK2 protein was then analyzed on a 10% SDS PAGE by both coomassie blue staining and anti-ERK Western blotting. […]
Enzyme, substrate and inhibitor were preincubated for 5-10 min at 4° C. in assay buffers containing a final concentration of 2% DMSO before initiating the reaction with 0.25 mM γ^2P-ATP. […] The filtermats were washed twice for several hours with TCA/PPA until all background radioactivity was removed. Precipitable counts were quantitated directly on the filtermat with a microbeta scintillation counter system (Wallac-Pharmacia). Inhibitor data were subjected to curve fitting and IC50 values were calculated from these curves using the GraphIt program.

SMILES strings stand for the structures.

Drawing on patent US6541468B1, “Indolocarbazole derivatives useful for the treatment of neurodegenerative diseases and cancer” (Bayer Corporation, priority 1998, dated 2003), this text covers IC50 for two molecules.

T1 sequence (P28482 whole entry): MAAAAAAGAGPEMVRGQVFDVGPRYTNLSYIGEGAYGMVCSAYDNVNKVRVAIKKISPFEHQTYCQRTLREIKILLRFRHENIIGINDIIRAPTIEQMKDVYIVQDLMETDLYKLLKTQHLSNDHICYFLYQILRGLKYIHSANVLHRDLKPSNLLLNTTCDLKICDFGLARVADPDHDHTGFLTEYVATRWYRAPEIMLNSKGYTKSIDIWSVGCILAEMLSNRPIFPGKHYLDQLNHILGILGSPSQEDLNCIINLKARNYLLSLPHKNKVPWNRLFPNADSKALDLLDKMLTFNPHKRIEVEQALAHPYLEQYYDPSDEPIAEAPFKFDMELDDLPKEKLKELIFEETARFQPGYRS

`CNC(=O)[C@]1(O)CC2CC1n1c3ccccc3c3c4c(c5c6ccccc6n2c5c31)C(=O)NC4=O` (stereo partly drawn) [CII, 9,12-Methano-1H-diindolo[1,2,3-fg:3′,2′,1′-kl]pyrrolo[3,4-I][1,6] benzodiazocine-10-carboxamide, 2,3,9,10,11,12-hexahydro-10-hydroxy-N-methyl-1,3-dioxo-(9α,10β,12α)] came in with a half-maximal inhibitory concentration (IC50) of 44 nM.
`COC(=O)[C@@]1(O)C[C@H]2C[C@@H]1n1c3ccccc3c3c4c(c5c6ccccc6n2c5c31)C(=O)NC4=O` (relative stereo) [CIII, 9,12-Methano-1H-diindolo[1,2,3-fg:3′,2′,1′-kl]pyrrolo[3,4-I][1,6] benzodiazocine-10-carboxylic acid, 2,3,9,10,11,12-hexahydro-10-hydroxy-1,3-dioxomethyl ester, (9α,10β,12α)]: the IC50 was above 30000 nM.

In general, IC50 refers to the concentration needed to halve the response being measured. Lower therefore signals greater potency.
